Measurements: patent US20140296153A1, “Oligodendrocyte Differentiation” (priority 2011, published 2014)

Key:
Format in all cases: cell-based, mouse
SVZ cells [1] = assay: SVZ self-renewal assay (secondary neurospheres); conditions: primary neurospheres exposed to Hp 1 μM for 6 days, replated without Hp
Procedure: Neurosphere forming and self-renewal assays were performed on SVZ cells seeded at clonal density, 2500 cells per well in 24-well cell culture plates in SFM containing 5 ng/ml EGF and 2.5 ng/ml FGF-2 and supplemented or not (control) with 1 μM Hp or 50 ng.ml^−1 hepatocyte growth factor (carrier free recombinant human HGF, R&D Systems, Lille, France). After 6 days, the numbers of primary neurospheres were determined. For self-renewal assay, neurospheres were collected, dissociated as single cells and seeded in SFM containing 5 ng/ml EGF and 2.5 ng/ml FGF-2 in 24 well plates. After 6 days, the number of secondary neurospheres was counted.
For the SVZ neurosphere forming and self-renewal assays the experiments were replicated in five independent culture preparations and each experimental condition was assayed in four different coverslips.

SVZ cells [2] = assay: Single cell calcium imaging (SCCI) of oligodendrocytic differentiation; conditions: 7 days
Procedure: To investigate the influence of Hp on oligodendrocytic differentiation, SVZ neurospheres were allowed to develop for 7 days Hp (100 nm, 1 μM), in serum free medium devoid of growth factor at 37° C.
To determine the functional differentiation pattern of SVZ cells, we analyzed the variations of intracellular calcium-free levels ([Ca^2+]i) in single cells following stimulation with 50 mM KCl, 100 μM histamine (Sigma-Aldrich, St. Louis, Mo. USA) and 0.1 U/ml thrombin (Sigma-Aldrich) stimulation. KCl depolarization causes an increase in [Ca^2+]i in neurons, whereas stimulation with histamine leads to an increase in [Ca^2+]i in stem/progenitor cells, while thrombin leads to an increase in [Ca^2+]i in oligodendrocytes. SVZ cultures were loaded for 40 minutes with 5 μM Fura—2/AM (Molecular Probes, Carlsbad, Calif., USA), 0.1% fatty acid-free BSA, and 0.02% pluronic acid F-127 (Molecular Probes) in Krebs solution (132 mM NaCl, 4 mM KCl, 1.4 mM MgCl2, 1 mM CaCl2, 6 mM glucose, 10 mM HEPES, pH 7.4), in an incubator with 5% CO2 and 95% atmospheric air at 37° C. After a 10-minute postloading period at room temperature (RT) in the same medium without Fura-2/AM and pluronic acid, to obtain a complete hydrolysis of the probe, the glass coverslip was mounted on an RC-20 chamber in a PH3 platform (Warner Instruments, Hamden, Conn., USA) on the stage of an inverted fluorescence microscope (Axiovert 200, Carl Zeiss). […] The variations of [Ca^2+]i were evaluated by quantifying the ratio of the fluorescence emitted at 510 nm following alternate excitation (750 msec) at 340 and 380 nm, using a Lambda DG4 apparatus (Sutter Instrument, Novato, Calif., USA) and a 510 nm band-pass filter (Carl Zeiss) before fluorescence acquisition with a x40 objective and a CoolSNAP digital camera (Roper Scientific, Trenton, N.J., USA). […] KCl, histamine, and thrombin peaks given by the normalized ratios of fluorescence at 340/380 nm, at the proper time periods, were used to calculate the ratios of the responses to histamine/KCl (Hist/KCl-neuronal-like profile) and to thrombin/histamine (Throm/Hist-oligodendrocytic-like profile).
Fluorescence images were recorded using an LSM 510 Meta confocal microscope or an Axioskop 2 Plus fluorescence microscope (both from Carl Zeiss). […] Percentages of TUNEL or BrdU immunoreactive cells in SVZ cell cultures were calculated from cell counts in five independent microscopic fields in each coverslip with a x40 objective (approximately 200 cells per field). […] For SCCl experiments, the percentage of oligodendrocytic-like responding cells (with a Thromb/Hist ratio above 1.3) was calculated on the basis of one microscopic field per coverslip, containing approximately 100 cells (magnification, ×40). […]

Olig2 = assay: Western blotting analysis of Olig2; conditions: 7 days, n=8
Procedure: Western blotting analysis of Olig2 was performed from 6- to 8-days-old neurospheres that were plated onto six-well plates previously coated with poly-D-lysine, and that were allowed to adhere for 48 h in the presence of SFM, and treated in the absence (control) or in the presence of Hp and/or AM251 for 7 days. For the evaluation of Olig2 protein levels in control versus Hp-treated condition, the medium was renewed after 48 h. Seven days after the first treatment, the cells were washed with 0.15M phosphate-buffered saline (PBS) and harvested by scraping in the lysis buffer [0.15 M NaCl, 0.05 M Tris-base, 5 mM EGTA, 1% Triton X-100, 0.5% DOC, 0.1% SDS, 10 mM dithiothreitol (DTT), containing a protease inhibitor cocktail tablet (Roche Diagnostics GmbH, Germany), pH7.4 at 4° C.].
The supernatant was collected after centrifugation at 14 000 rpm for 10 min, at 4° C. Protein concentration was measured by the BCA method and samples were treated with SDS-PAGE sample buffer [6× concentrated: 350 mM Tris, 10% (w/v) SDS, 30% (v/v) glycerol, 0.6 M DTT, 0.06% (w/v) bromophenol blue], boiled 5 min at 95° C., and stored at −20° C. until use for Western blotting analysis. […]

Compound: CC(C)C[C@H](NC(=O)[C@H](Cc1ccccc1)NC(=O)[C@H](CCCCN)NC(=O)[C@H](Cc1ccccc1)NC(=O)[C@H](CC(N)=O)NC(=O)[C@@H](NC(=O)[C@@H]1CCCN1)C(C)C)C(=O)N[C@@H](CO)C(=O)N[C@@H](Cc1cnc[nH]1)C(=O)O [Hp, PVNFKFLSH]
- number of secondary neurospheres (control 100%) (SVZ cells [1]): 125.5±13.38%
- cells responding with a Throm/Hist ratio above 1.3 (oligodendrocyte-like responding cells) (SVZ cells [2]; Hp 100 nM, 9 coverslips): 15.84±3.85%
- cells responding with a Throm/Hist ratio above 1.3 (oligodendrocyte-like responding cells) (SVZ cells [2]; Hp 1 μM, 12 coverslips): 14.51±4.09%
- cells responding with a Throm/Hist ratio above 1.3 (oligodendrocyte-like responding cells) (SVZ cells [2]; Hp treatment (100 nM or 1 μM), rounded): around 15%
- Olig2 protein levels normalized to β-actin, relative to control (100%) (Olig2; Hp 100 nM): 136.9±10.94%
- Olig2 protein levels normalized to β-actin, relative to control (100%) (Olig2; Hp 1 μM): 158.7±23.62%
